Laboratory results from the NIST ThermoML archive (doi:10.1016/j.jct.2016.04.014).

Details: Liquid, Vibrating tube method

CCCCCCCC [octane]
mass density [kg/m3]
Details	303.15 K	308.15 K	313.15 K	318.15 K	323.15 K
100 kPa	–	690.4	686.3	682.2	678
101 kPa	–	–	686.32	–	678.09
1000 kPa	–	691.2	687.1	683	678.9
5000 kPa	–	694.7	690.8	686.8	682.8
10000 kPa	–	698.9	695.1	691.3	687.4
15000 kPa	–	703	699.3	695.6	691.9
20000 kPa	–	706.9	703.3	699.7	696.1
25000 kPa	–	710.6	707.2	703.6	700.2
30000 kPa	–	714.2	710.8	707.4	704
35000 kPa	–	717.5	714.3	711	707.7
40000 kPa	–	720.8	717.6	714.3	711.1
45000 kPa	–	723.8	720.7	717.5	714.4
50000 kPa	–	726.7	723.6	720.5	–
55000 kPa	732.5	729.4	726.3	723.3	–
60000 kPa	735	731.9	728.9	725.9	–
